In patent US20140087970A1, “SERINE BIOSYNTHESIS PATHWAY INHIBITION FOR TREATMENT OF CANCER” (Whitehead Institute for Biomedical Research, priority 2011, published 2014):

Tested on: cell lines with elevated PHGDH expression (BT-20, MDA-MB-468, HCC70, Hs578T and MT3)
Assay: Cell proliferation assay after lentiviral shRNA infection
Format: cell-based, human
Conditions: media supplemented during PHGDH knockdown
Procedure: For PHGDH or PSPH knockdown experiments, 10,000-20,000 MDA-MB-468, BT-20, HCC70, MCF-7, or MDA-MB-23 I cells were infected with shRNA-expressing lentiviruses of known titers at a multiplicity of infection of 2.5 to 5. Cells were cultured in 12-well plates and infected via a 30-minute spin at 2,250 RPM in a Beckman Coulter Allegra X-12R centrifuge with an SX4750 rotor and uPlate Carrier attachment followed by an overnight incubation in media containing polybrene. Eight days after infection the number of cells was determined using a Coulter Counter (Beckman) and used to calculate relative cell proliferation. Where indicated, standard RPMI media was supplemented with serine to concentrations 5-fold that of the serine already in the media. Where indicated, supplementation occurred at one and four days after lentiviral infection. For serine depletion experiments, cells were plated out as described above and the following day the standard culture medium was replaced with medium lacking serine or reconstituted with 1× serine. Dialyzed serum (3 kDa MWCO) was utilized in serine depletion experiments except in the case of MCF-10A cells, where standard 5% serum was utilized.

Row | Structure (SMILES) | effect of media supplementation on the PHGDH knockdown proliferation phenotype
1 | COC(=O)C(N)CO (centres unmarked) [methyl-serine-ester] | did not blunt the effects of the PHGDH knockdown
2 | N[C@@H](CO)C(=O)O [serine] | did not blunt the effects of the PHGDH knockdown
